Patent US8940498B2, “Biological assays for the characterization of cells using single-cell tracking and uses thereof” (priority 2012, dated 2015)
Read-outs that look alike come from different tables or passages of the source.

Columns and labels:
HeLa cells [1] = conditions: for Average CQI: CQI Formula 1
HeLa cells [2] = test: cells; conditions: Homo sapiens, read-out: Average CQI, % of control
HeLa cells [3] = test: Classical clonogenic end-point assay; assay type: cell-based; conditions: 0.25 μM for 30 min
[4] = exposure to non-cytotoxic doses
[5] = HeLa cells, 0.25 μM, normalized by 200 progenitors

[Cd] [cadmium]
frequency of cells entering MD versus control cell populations (HeLa cells [1]; [4]): more frequently found than control cell populations

CC(=O)Nc1ccc(O)cc1 [acetaminophen]
frequency of cells entering MD versus control cell populations (HeLa cells [1]): not observed

arsenic acid
frequency of cells entering MD versus control cell populations (HeLa cells [1]; [4]): more frequently found than control cell populations

CC[C@@]1(O)C(=O)OCc2c1cc1n(c2=O)Cc2cc3ccccc3nc2-1 [CPT, camptothecin]
activity at 0.1 µM (HeLa cells [2]): 102%
activity at 0.25 µM (HeLa cells [2]): 60%
activity at 1 µM (HeLa cells [2]): 22%
cell survival (HeLa cells [3]): 95%
Average CQI (HeLa cells [1]; HeLa cells, 0.1 μM): 9.3
CQI (Formula 2) (HeLa cells [1]; HeLa cells, 0.25 μM): 0.026
total MD versus control (HeLa cells [1]; HeLa cells, 0.25 μM): reduced
Average CQI (HeLa cells [1]; HeLa cells, 0.25 μM): 6.2
DD (number of dipolar division events) (HeLa cells [1]; [5]): 1059 ± 95
MD (multipolar division, TD+QD+HD) (HeLa cells [1]; [5]): 27.0 ± 4.5
QD (number of quadripolar division events) (HeLa cells [1]; [5]): 4.0 ± 1.2
TD (number of tripolar division events) (HeLa cells [1]; [5]): 23.0 ± 3.2
Total DV (total cell division, DD+TD+QD+HD) (HeLa cells [1]; [5]): 1086 ± 9.7
Average CQI (HeLa cells [1]; HeLa cells, 1 μM): 1.8
CD induction and cell growth suppression (HeLa cells [1]; HeLa cells, at non-cytotoxic dose (0.1 μM CPT, 1 μM MNNG)): neither CD induction nor cell growth suppression
non-cytotoxic dose (HeLa cells [1]; HeLa cells, by average CQI): 0.1 µM
sub-cytotoxic dose (HeLa cells [1]; HeLa cells, by average CQI): 0.25 µM

CC(C)Cc1ccc(C(C)C(=O)O)cc1 (centres unmarked) [ibuprofen]
frequency of cells entering MD versus control cell populations (HeLa cells [1]; [4]): not observed

C=O [formaldehyde]
frequency of cells entering MD versus control cell populations (HeLa cells [1]): more frequently found than control cell populations
non-cytotoxic dose (HeLa cells [1]; human): 0.002 to 0.18 µM
